What was measured:
Type in all cases: in vivo
[1] = system: blackgrass (Alopecurus myosuroides); experiment: Test A greenhouse herbicide test, postemergence
Procedure, shortened: (§1)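 Seedlings in a loam soil and sand mix received formulated compound postemergence at the one- to two-leaf stage. Greenhouse holding lasts approximately 10 d, then injury is scored visually relative to untreated plants, 0 meaning no effect and 100 complete control.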

[2] = system: galium (catchweed bedstraw, Galium aparine); experiment: Test A greenhouse herbicide test, postemergence
Procedure, shortened: as §1

[3] = system: barnyardgrass (Echinochloa crus-galli); experiment: Test C greenhouse herbicide test, pre- and postemergence
Procedure, shortened: (§2)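 Percent-control ratings (0 none, 100 complete) came from visual comparison with controls held alongside in the greenhouse for 13–15 d. Treatments covered soil application at sowing and foliar application to young plants 2–18 cm tall.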

[4] = system: crabgrass, large (large crabgrass, Digitaria sanguinalis); experiment: as above
Procedure, shortened: as §2

[5] = system: foxtail, giant (giant foxtail, Setaria faberii); experiment: as above
Procedure, shortened: as §2

[6] = system: galium (catchweed bedstraw, Galium aparine); experiment: as above
Procedure, shortened: as §2

[7] = system: johnsongrass (Sorghum halepense); experiment: as above
Procedure, shortened: as §2

[8] = system: lambsquarters (Chenopodium album); experiment: as above
Procedure, shortened: as §2

[9] = system: morningglory (Ipomoea coccinea); experiment: as above
Procedure, shortened: as §2

[10] = system: oilseed rape (Brassica napus); experiment: as above
Procedure, shortened: as §2

[11] = system: ragweed (common ragweed, Ambrosia elatior); experiment: as above
Procedure, shortened: as §2

[12] = system: ryegrass, Italian (Italian ryegrass, Lolium multiflorum); experiment: as above
Procedure, shortened: as §2

[13] = system: wheat (winter wheat, Triticum aestivum); experiment: as above
Procedure, shortened: as §2

[14] = 125 g ai/ha, 0 to 100 scale where 0 is no effect and 100 is complete control
[15] = 500 g ai/ha, 0 to 100 scale, 0 is no effect, 100 is complete control
[16] = Postemergence, 31 g ai/ha, 0 to 100 scale (0 no effect, 100 complete control)
[17] = Postemergence, 125 g ai/ha, scale 0 to 100, 0 is no effect, 100 is complete control
[18] = Postemergence, 250 g ai/ha, scale 0 to 100, 0 no effect, 100 complete control, 13 to 15 d
[19] = postemergence, 62 g ai/ha, scale 0 to 100, 0 no effect, 100 complete control

CCC(=O)Oc1c(C)nn(C)c(=O)c1-c1c(C)ccc2ccccc12 [Compound 78]
Plant response rating, Blackgrass [1, 14]: 30 | Blackgrass plant response rating [1, 15]: 80 | Plant response rating, Galium [2, 14]: 80 | Galium plant response rating [2, 15]: 100 | Barnyardgrass plant response rating [3, 16]: 15 | Plant response rating, Barnyardgrass [3, 17]: 30 | Plant response rating, Barnyardgrass [3, 18]: 25 | Barnyardgrass plant response rating [3, 19]: 25 | Crabgrass, Large plant response rating [4, 16]: 5 | Plant response rating, Crabgrass, Large [4, 17]: 10 | Plant response rating, Crabgrass, Large [4, 18]: 10 | Crabgrass, Large plant response rating [4, 19]: 5 | Foxtail, Giant plant response rating [5, 16]: 15 | Plant response rating, Foxtail, Giant [5, 17]: 20 | Plant response rating, Foxtail, Giant [5, 18]: 25 | Foxtail, Giant plant response rating [5, 19]: 5 | Galium plant response rating [6, 16]: 70 | Plant response rating, Galium [6, 17]: 80 | Plant response rating, Galium [6, 18]: 95 | Galium plant response rating [6, 19]: 80 | Johnsongrass plant response rating [7, 16]: 5 | Plant response rating, Johnsongrass [7, 17]: 5 | Plant response rating, Johnsongrass [7, 18]: 5 | Johnsongrass plant response rating [7, 19]: 5 | Lambsquarters plant response rating [8, 16]: 40 | Plant response rating, Lambsquarters [8, 17]: 75 | Plant response rating, Lambsquarters [8, 18]: 100 | Lambsquarters plant response rating [8, 19]: 70 | Morningglory plant response rating [9, 16]: 20 | Plant response rating, Morningglory [9, 17]: 65 | Plant response rating, Morningglory [9, 18]: 65 | Morningglory plant response rating [9, 19]: 40 | Oilseed Rape plant response rating [10, 16]: 0 | Plant response rating, Oilseed Rape [10, 17]: 0 | Plant response rating, Oilseed Rape [10, 18]: 5 | Oilseed Rape plant response rating [10, 19]: 0 | Ragweed plant response rating [11, 16]: 10 | Plant response rating, Ragweed [11, 17]: 60 | Plant response rating, Ragweed [11, 18]: 75 | Ragweed plant response rating [11, 19]: 20 | Ryegrass, Italian plant response rating [12, 16]: 55 | Plant response rating, Ryegrass, Italian [12, 17]: 85 | Plant response rating, Ryegrass, Italian [12, 18]: 90 | Ryegrass, Italian plant response rating [12, 19]: 65 | Wheat plant response rating [13, 16]: 0 | Plant response rating, Wheat [13, 17]: 5 | Plant response rating, Wheat [13, 18]: 10 | Wheat plant response rating [13, 19]: 5
